Results taken from patent publication US20080200404A1, “Novel Antimalarial 9A-Carbamoyl-Aminoalkyl and 9A-Thiocarbamoyl-Aminoalkyl Azalides” (priority 2005, published 2008).
≈ marks a conversion by molar mass, not a printed value. Like-named read-outs stand apart in the source and are kept apart here.

Columns and labels:
Format in all cases: cell-based
[1] = system: Plasmodium falciparum clone CDC/Indochina III (W-2); assay: In vitro antimalarial [3H]-hypoxanthine incorporation serial dilution assay, W2; conditions: Plasmodium falciparum; P. falciparum W2, 72 hours exposure
Excerpt: (§1) The in vitro screens for intrinsic antimalarial activity were based on modifications of the procedures described by Desjardins R E, Canfield C J, Haynes J D, Chulay J D. (Quantitative assessment of antimalarial activity in vitro by a semiautomated microdilution technique. Antimicrob Agents Chemother. 1979 December; 16(6):710-8.), Chulay J D, Haynes J D, Diggs C L. (Plasmodium falciparum: Assessment of in vitro growth by [3H]hypoxanthine incorporation. Exp. Parasitol. 1983 55:138-146.), and Milhous W K, Weatherly N F, Bowdre J H, Desjardins R E. (In vitro activities of and mechanisms of resistance to antifol antimalarial drugs. Antimicrob Agents Chemother. 1985 April; 27(4):525-30.). The system was limited to the assessment of the intrinsic activity against the erythrocytic asexual life cycle (blood schizontocides). Two Plasmodium falciparum clones from CDC/Indochina III (W-2) and CDC/Sierra Leone I (D-6) (Oduola A M, Weatherly N F, Bowdre J H, Desjardins R E. Plasmodium falciparum: cloning by single-erythrocyte micromanipulation and heterogeneity in vitro. Exp Parasitol. 1988 66(1):86-95.) were used for all assays. TM91C235, a multiple drug resistant isolate from Thailand, was used for the prescreening assay. W-2 is resistant to chloroquine, quinine, and pyrimethamine and susceptible to mefloquine. D-6 tends to be more resistant to mefloquine and susceptible to chloroquine, quinine, and pyrimethamine. All documents cited in this paragraph are incorporated by reference in their entirety.
(§2) All parasites were maintained in continuous long term cultures in RPMI-1640 medium supplemented with 6% washed human A positive (A+)(erythrocytes, 25 mM Hepes, […], and 10% heat inactivated A+human plasma or ALBUMAX® (lipid-rich bovine serum albumin; Invitrogen, Carlsbad, Calif.). All cultures and assays were conducted at 37° C. under an atmosphere of 5% CO2 and 5% O2, with a balance of N2.
(§3) After the preincubation, [^3H]-hypoxanthine was added to each well of the MTP. (The assay relies on the incorporation of radiolabeled hypoxanthine by the parasites, which indicates reproduction, and inhibition of isotope incorporation was attributed to activity of known or candidate antimalarial drugs). After 72 hr of total incubation time, the MTP were frozen to lyse the erythrocytes and parasites. The parasite DNA was recovered by harvesting the lysate onto glass-fiber filter plates using a Packard FilterMate™ Cell Harvester. The radioactivity was counted on a Packard TopCount™ microplate scintillation counter. The results were recorded as counts per minutes (CPM) per well at each drug concentration divided by the arithmetic mean of the CPM from the three untreated infection parasite control wells.
(§4) The serial dilution assay was conducted using the same assay conditions and stock solution of the compound used for the preliminary screen, described above. Both the D-6 and the W-2 clones were used. The compounds were diluted two-fold over 11 different concentration ranges with a starting concentration that was based on the preliminary screen. For each drug, the concentration response profile was determined and 50% inhibitory concentrations (IC50) were determined by using a non-linear, logistic dose response analysis program. […] For each assay, the IC50 for each clone was determined against the known antimalarials chloroquine and mefloquine. These control values established the compound's relative parasite susceptibility profile compared to known antimalarials. […]
(§5) The in vitro potency of the compounds has been compared with that of azithromycin to better gauge compounds suitable for further testing. As described above, parasites were exposed for 72 hours. Data from the in vitro potency tests of azithromycin against the three parasite strains have been averaged, and these numbers have been used for identification of “active” macrolide compounds.

[2] = system: Plasmodium falciparum clone CDC/Sierra Leone I (D-6); assay: In vitro antimalarial [3H]-hypoxanthine incorporation serial dilution assay, D6; conditions: Plasmodium falciparum, D6, 72 h, P. falciparum D6, 72 hours exposure
Excerpt: as §1, §2, §3, §4, §5

[3] = system: Plasmodium falciparum TM91C235; assay: In vitro antimalarial [3H]-hypoxanthine incorporation assay, TM91C235; conditions: Plasmodium falciparum; P. falciparum TM91C235 (multiple drug resistant isolate), 72 hours exposure
Excerpt: as §1, §2
The prescreening assay uses TM91C235 diluted at a 0.4% parasitemia in a 1% hematocrit in folic acid free and p-aminobenzoic acid free media RPMI-1640 and ALBUMAX®. One mg of the compound is typically dissolved in 100 μl of dimethyl sulfoxide (DMSO). The compound is further diluted in culture medium (FF) with ALBUMAX® for the first initial starting concentration. The rest of the stock drug solution was kept at −70° C. The isolate was preexposed, in duplicate, at three concentrations (25,000 ng/ml, 2,500 ng/ml, and 25 ng/ml) of the test compound for 48 hr in a 96-well microtiter plate (MTP) using the BIOMEK® 2000 automated laboratory workstation. Each MTP contains chloroquine as control to assess the relative activity of the compound and to monitor the response of TM91C235.
as §3
The serial dilution assay was conducted using the same assay conditions and stock solution of the compound used for the preliminary screen, described above. Both the D-6 and the W-2 clones were used. The compounds were diluted two-fold over 11 different concentration ranges with a starting concentration that was based on the preliminary screen. […]

[4] = compared with azithromycin, read-out: IC50 D6 (class symbol)

IC50 [1] | IC50 ([2]; read-out: IC50 D6) | IC50 [3] | IC50 [2, 4] | Compound
0.07 µg/mL (≈ 0.0736 µM) | 0.253 µg/mL (≈ 0.266 µM) | 0.0915 µg/mL (≈ 0.0962 µM) | – | CC[C@H]1OC(=O)[C@H](C)[C@@H](O[C@H]2C[C@@](C)(OC)[C@@H](O)[C@H](C)O2)[C@H](C)[C@@H](O[C@@H]2O[C@H](C)C[C@H](N(C)C)[C@H]2O)[C@](C)(O)C[C@@H](C)CN(CCCNC(=O)Nc2ccc3c(c2)CCC3)[C@H](C)[C@@H](O)[C@]1(C)O [Example 64]
0.708 µg/mL | – | 0.398 µg/mL | > 0.797 µg/mL | CC[C@H]1OC(=O)[C@H](C)[C@@H](O[C@H]2C[C@@](C)(OC)[C@@H](O)[C@H](C)O2)[C@H](C)[C@@H](O[C@@H]2O[C@H](C)C[C@H](N(C)C)[C@H]2O)[C@](C)(O)C[C@@H](C)CN(CCCNC(=O)Nc2ccc(C(C)=O)cc2)[C@H](C)[C@@H](O)[C@]1(C)O.O=CO [Example 65]
0.0676 µg/mL (≈ 0.0709 µM) | 0.214 µg/mL (≈ 0.225 µM) | 0.0746 µg/mL (≈ 0.0783 µM) | – | CC[C@H]1OC(=O)[C@H](C)[C@@H](O[C@H]2C[C@@](C)(OC)[C@@H](O)[C@H](C)O2)[C@H](C)[C@@H](O[C@@H]2O[C@H](C)C[C@H](N(C)C)[C@H]2O)[C@](C)(O)C[C@@H](C)CN(CCCNC(=O)Nc2ccc(C(C)C)cc2)[C@H](C)[C@@H](O)[C@]1(C)O [Example 66]
0.195 µg/mL (≈ 0.204 µM) | – | 0.462 µg/mL (≈ 0.484 µM) | > 0.797 µg/mL | CC[C@H]1OC(=O)[C@H](C)[C@@H](O[C@H]2C[C@@](C)(OC)[C@@H](O)[C@H](C)O2)[C@H](C)[C@@H](O[C@@H]2O[C@H](C)C[C@H](N(C)C)[C@H]2O)[C@](C)(O)C[C@@H](C)CN(CCCNC(=O)NCc2ccc(OC)cc2)[C@H](C)[C@@H](O)[C@]1(C)O [Example 67]
0.106 µg/mL (≈ 0.111 µM) | 0.798 µg/mL (≈ 0.835 µM) | 0.254 µg/mL (≈ 0.265 µM) | – | CC[C@H]1OC(=O)[C@H](C)[C@@H](O[C@H]2C[C@@](C)(OC)[C@@H](O)[C@H](C)O2)[C@H](C)[C@@H](O[C@@H]2O[C@H](C)C[C@H](N(C)C)[C@H]2O)[C@](C)(O)C[C@@H](C)CN(CCCNC(=O)Nc2ccc3c(c2)OCO3)[C@H](C)[C@@H](O)[C@]1(C)O [Example 68]
0.0765 µg/mL | 0.164 µg/mL | 0.0863 µg/mL | – | CC[C@H]1OC(=O)[C@H](C)[C@@H](O[C@H]2C[C@@](C)(OC)[C@@H](O)[C@H](C)O2)[C@H](C)[C@@H](O[C@@H]2O[C@H](C)C[C@H](N(C)C)[C@H]2O)[C@](C)(O)C[C@@H](C)CN(CCCNC(=O)Nc2ccc(C(F)(F)F)cc2)[C@H](C)[C@@H](O)[C@]1(C)O.O=CO [Example 70]
0.186 µg/mL | 0.451 µg/mL | 0.117 µg/mL | – | CC[C@H]1OC(=O)[C@H](C)[C@@H](O[C@H]2C[C@@](C)(OC)[C@@H](O)[C@H](C)O2)[C@H](C)[C@@H](O[C@@H]2O[C@H](C)C[C@H](N(C)C)[C@H]2O)[C@](C)(O)C[C@@H](C)CN(CCCNC(=O)Nc2cccc(Cl)c2)[C@H](C)[C@@H](O)[C@]1(C)O.O=CO [Example 80]
0.278 µg/mL | 0.565 µg/mL | 0.16 µg/mL | – | CC[C@H]1OC(=O)[C@H](C)[C@@H](O[C@H]2C[C@@](C)(OC)[C@@H](O)[C@H](C)O2)[C@H](C)[C@@H](O[C@@H]2O[C@H](C)C[C@H](N(C)C)[C@H]2O)[C@](C)(O)C[C@@H](C)CN(CCCNC(=O)Nc2cccc(F)c2)[C@H](C)[C@@H](O)[C@]1(C)O.O=CO [Example 81]
0.316 µg/mL | 0.293 µg/mL | 0.227 µg/mL | – | CC[C@H]1OC(=O)[C@H](C)[C@@H](O[C@H]2C[C@@](C)(OC)[C@@H](O)[C@H](C)O2)[C@H](C)[C@@H](O[C@@H]2O[C@H](C)C[C@H](N(C)C)[C@H]2O)[C@](C)(O)C[C@@H](C)CN(CCCNC(=O)Nc2cc(F)cc3c2OCOC3)[C@H](C)[C@@H](O)[C@]1(C)O.O=CO [Example 82]
0.042 µg/mL | 0.0289 µg/mL | 0.0618 µg/mL | – | CC[C@H]1OC(=O)[C@H](C)[C@@H](O[C@H]2C[C@@](C)(OC)[C@@H](O)[C@H](C)O2)[C@H](C)[C@@H](O[C@@H]2O[C@H](C)C[C@H](N(C)C)[C@H]2O)[C@](C)(O)C[C@@H](C)CN(CCCNC(=O)Nc2ccc3c(c2)OCCCO3)[C@H](C)[C@@H](O)[C@]1(C)O.O=CO [Example 84]
